How the values were obtained:
[1] = tested on: Litomosoides carinii; assay: filaricidal activity in cotton rats infected with Litomosoides carinii (dead adult filaria in pleural cavity); format: in vivo, Litomosoides carinii in cotton rats (Sigmodon hispidus); conditions: sc, 1008 h, s.c., infected cotton rats treated 14 weeks after infection, dissected 42 days after treatment, dosage at which 90% of worms are dead, Probit analysis
Protocol: (§1) The filaricidal activity of the compounds of formula III can be determined, for example, on cotton rats (Sigmodon hispidus) which have been infected with Litomosoides carinii. The infection with L. carinii is transmitted by the blood-sucking mite (Bdellonyssus bacoti) in which the development of the microfilaria to infectious larvae takes place. The cotton rats are infected by exposing them to bites of infected mites. Fourteen (14) weeks after the infection, groups of 2-4 animals are treated subcutaneously with the compound to be tested. Forty-two (42) days after treatment with the compound to be tested, the experimental animals are dissected, whereby the adult filaria are removed from the pleural cavity. Living and dead or encapsulated worms are separated from one another and weighed. The filaricidal activity is expressed as the percentage proportion of dead macrofilaria per treatment group. The ED90 is then determined by means of Probit analysis using the values from different dosage groups. The ED90 is that dosage at which 90% of the worms removed from the pleural cavity are dead. In the following Table, there are compiled the results which have been obtained in the previously described test with representative members of the class of compound defined by formula III. Moreover, the Table contains data concerning the acute toxicity of some of these compounds in mg/per kg in the case of single oral administration to mice.

[2] = acute toxicity, single oral administration to mice; conditions: mouse, in vivo, p.o.
Protocol: as §1, with “Moreover, the Table contains data concerning the acute toxicity of some of these compounds in mg/per kg in the case of single oral administration to mice.” left out

Row | SMILES | ED90 [1] | LD50 [2]
1 | CN(C)C=Cc1n(N=Cc2ccc(N(C)C)cc2)cc[n+]1N=Cc1ccc(N(C)C)cc1.[Cl-] [Compound A, 1,3-bis[[p-(dimethylamino)benzylidene]amino]-2-[2-(dimethylamino)vinyl]imidazolium chloride] | 1 mg/kg | 312 to 625 mg/kg
2 | CC(C)c1n(N=Cc2ccc(N(C)C)cc2)cc[n+]1N=Cc1ccc(N(C)C)cc1.[Cl-] [Compound B, 1,3-bis[[p-(dimethylamino)benzylidene]amino]-2-isopropyl-imidazolium chloride] | 0.5 mg/kg | –
3 | Cc1n(N=Cc2ccc(N(C)C)cc2)cc[n+]1N=Cc1ccc(N(C)C)cc1.[Cl-] [Compound C, 1,3-bis[[p-(dimethylamino)benzylidene]amino]-2-methylimidazolium chloride] | 0.85 mg/kg | –
4 | CN(C)c1ccc(C=Nn2cc[n+](N=Cc3ccc(N(C)C)cc3)c2-c2ccccc2)cc1.[Cl-] [Compound D, 1,3-bis[[p-(dimethylamino)benzylidene]amino]-2-phenylimidazolium chloride] | < 1 mg/kg | 1250 to 2500 mg/kg
